In patent US5112866A, “Ethanesulfonamide derivatives” (Ortho Pharmaceutical Corporation, priority 1989, dated 1992):
Where a name gives a salt, the structure may show the parent alone. Read-outs that look alike come from different tables or passages of the source.

Legend:
[1] = tested on: Rabbit Isolated Parietal Cells; experiment: Inhibition of 14C-aminopyrine accumulation in stimulated rabbit isolated parietal cells; format: cell-based; conditions: Oryctolagus cuniculus, 37° C.
Excerpt: Pharmacology of the Ethanesulfonamide Compounds - Rabbit Isolated Parietal Cells
Parietal cells were isolated from the fundic mucosa of rabbit stomachs by a four-stage collagenase digestion Process. The supernatant fraction from the last two stages of this Process contained the individual parietal cells. This cell suspension was centrifuged and reconstituted in a modified Hank's buffer to contain 2-3×10^6 cells/ml. […] The accumulation is stimulated by histamine and is blocked by H2 antagonists. Accumulation of ^14 C-AP is also stimulated by dibutyryl cAMP (dbcAMP). The cells were incubated with 0.5×10^6 cpm ^14 C-AP, with various concentrations of histamine or dbcAMP, […] isobutylmethylxanthine, and test compound added in a 20 μl volume of buffer or dimethylsulfoxide. The flasks were incubated in a shaking water bath at 37° C. Two 0.5 ml aliquots were then taken from each flask and cell pellets were collected by centrifugation. The pellets were solubilized with Protosol (NEN) and radioactivity determined by liquid scintillation spectrometry.
The concentration of compound required to inhibit ^14 C-AP accumulation in the stimulated parietal cell by 50% (IC50) was determined.

Gastric Secretion = experiment: Inhibition of Gastric Secretion in Rat (pylorus ligated); format: in vivo, rat (male Charles River); conditions: Dose 40 MPK, intraduodenal, four hours after pylorus ligation
Experimental: Inhibition of Gastric Secretion in Rat
Male Charles River rats weighing 150-300 grams were deprived of food but not water for 18-24 hours prior to use. Water was withheld during the experiment. The rats were weighed, anesthetized with ether and the pylorus ligated according to the method of Shay, H. et al., Gastroenterol. 26, 906 (1954). Test compounds were suspended in a 0.5% aqueous solution of methylcellulose (15 cps) and administered intraduodenally (i.d.) at the time of ligation. The rats were housed two per cage and sacrificed with CO2 four hours after ligation. The stomachs were removed and contents emptied into a graduated centrifuge tube. The tubes were centrifuged, the volume of gastric juice recorded, and any samples obviously contaminated by feces, food or blood eliminated. A 1 ml aliquot of gastric juice was titrated with 0.1 N NaOH to a pH of 7.0-7.4.
The volume of gastric juice secreted, the acid concentration, and the product of the volume times the concentration, i.e., the total amount of acid secreted, were statistically compared by a student's t-test using the pooled error variance.

[2] = tested on: Mouse osteoblastic-line cells (MC3T3-El); experiment: Mouse Osteoblast-line Cell Proliferation (3H-thymidine); format: cell-based; conditions: 0.1% FBS
Experimental: Pharmacology of the Ethenesulfonyl Fluoride Compounds--In Vitro Mouse Osteoblast-line Cell Proliferation
Reagents: Mouse osteoblastic-line cells (MC3T3-El) were plated in Dulbeccos Modified Eagles Medium (DMEM) with 25 mM Hepes Buffer, L-Glutamine, D-Glucose(4.5 gm/1) supplemented with 10% fetal bovine sera, Penicillin (100 units/ml) and Streptomycin ([…]) (Penicillin-Streptomycin liquid) and sodium pyruvate (10 μM final concentration). ^3 H-Thymidine (6.7 Ci/mmole) was diluted in DMEM media without FBS and filter sterilized. An aliquot of this solution was delivered to each culture well to a final concentration of ^3 H-thymidine of 0.4 μCi per well (2 μCi/ml).
Test Preparations: Solutions of the test compound were made on the day before incubation. These compounds were solubilized in either ethanol or DMSO at a concentration of 100 mM containing 0.1% FBS. The solutions were filter sterilized and then sterile serial dilutions were performed with DMEM media containing 0.1% FBS.
Osteoblast line cells were plated into 96 well culture plates, 1600 cells in 100 μL per well in DMEM with 25 mM Hepes Buffer, L-Glutamine, D-Glucose (4.5 gm/L) supplemented with 10% fetal bovine sera, Penicillin (100 units/mL) and Streptomycin (100 μg/mL) and sodium Pyruvate (10 μM final concentration). The media was replaced with DMEM containing no FBS and the cells were then incubated for an additional 24 hours. The following day, test compounds were added and screened at concentrations ranging from 10^-10 to 10^-5 M in the Presence of 0.1% FBS. The cells were then incubated an additional 20 hours. At this time 0.4 μ/Ci of 3H-thymidine was added to each culture well and the cells were incubated an additional 4 hours. The cells were then harvested with a Skatron Cell Harvester onto a glass fiber filter and washed with water, %5 trichloroacetic acid (TCA) and then 95% ethanol. The filters were then processed and counted on the LKB beta plate scintillation counter.

[3] = 14C-AP accumulation stimulated by dibutyryl cAMP, read-out: IC50 (dbcAMP)
[4] = 14C-AP accumulation stimulated by histamine, read-out: IC50 (H)

Structure (SMILES) | IC50 [1, 3] [nM] | IC50 [1, 4] [nM] | % Reduction of Total Acid Output (Gastric Secretion) [%] | Mouse Osteoblast-line Cell Proliferation [Expressed as a Percent of Control] ([2]; 0.001 μM) | Mouse Osteoblast-line Cell Proliferation [Expressed as a Percent of Control] ([2]; 0.01 μM) | Mouse Osteoblast-line Cell Proliferation [Expressed as a Percent of Control] ([2]; 0.1 μM) | Mouse Osteoblast-line Cell Proliferation [Expressed as a Percent of Control] ([2]; 1.0 μM) | Mouse Osteoblast-line Cell Proliferation [Expressed as a Percent of Control] ([2]; 10 μM)
O=S(=O)(CCNc1ccc(Cl)c(Cl)c1)NCCCOc1cccc(CN2CCCCC2)c1 [Example 1] | 130 | 370 | 47.9 | – | – | – | – | –
O=S(=O)(CCNc1ccc(F)cc1)NCCCOc1cccc(CN2CCCCC2)c1 [Example 2, 2-[(4-Fluorophenyl)amino]-N-[3-[3-(piperidinomethyl)phenoxy]propyl]ethanesulfonamide] | 1820 | 920 | 22.1 | – | – | – | – | –
CCOC(=O)c1ccc(NCCS(=O)(=O)NCCCOc2cccc(CN3CCCCC3)c2)cc1 [Example 3] | 2300 | 390 | 25.6 | – | – | – | – | –
O=[N+]([O-])c1ccc(NCCS(=O)(=O)NCCCOc2cccc(CN3CCCCC3)c2)cc1 [Example 4, 2-[(4-Nitrophenyl)amino]-N-[3-[3-(piperidinomethyl)phenoxy]propyl]ethanesulfonamide] | 3700 | 120 | 30.8 | – | – | – | – | –
O=S(=O)(CCNc1ccc(Br)cc1)NCCCOc1cccc(CN2CCCCC2)c1 [Example 5] | 860 | 370 | – | – | – | – | – | –
O=S(=O)(CCNc1ccccc1)NCCCOc1cccc(CN2CCCCC2)c1 [Example 6, 2-(Phenylamino)-N-[3-[3-(piperidinomethyl)phenoxy]propyl]ethanesulfonamide] | 10000 | 1000 | – | – | – | – | – | –
CC(C)Oc1ccc(NCCS(=O)(=O)NCCCOc2cccc(CN3CCCCC3)c2)cc1 [Example 7, 2-[[4-(1-Methylethony)Phenyl]amino]-N-[3-[3-(piperidinomethyl)Phenoxy]propyl]ethanesulfonamide] | 2000 | 840 | – | – | – | – | – | –
CCCCCOc1ccc(NCCS(=O)(=O)NCCCOc2cccc(CN3CCCCC3)c2)cc1 [Example 8, 2-[(4-Pentoxyphenyl)amino]-N-[3-[3-(piperidinomethyl)phenoxy]propyl]ethanesulfonamide] | 370 | 330 | – | – | – | – | – | –
CCOC(=O)c1ccc(NCCS(=O)(=O)F)cc1 [Example 16] | – | – | – | 132.8% of Control | 142.1% of Control | 127.5% of Control | 136.5% of Control | 154.7% of Control
COc1ccc(NCCS(=O)(=O)F)cc1 [Example 17, Monohydrochloride] | – | – | – | 165.5% of Control | 148.9% of Control | 129.1% of Control | 115.9% of Control | 108.8% of Control
O=S(=O)(F)CCNc1ccccc1 [Example 18, Monohydrochloride] | – | – | – | 132.6% of Control | 125.6% of Control | 108.1% of Control | 93.1% of Control | 95.9% of Control
CCCCc1ccc(NCCS(=O)(=O)F)cc1 [Example 19, Monohydrochloride] | – | – | – | 109.0% of Control | 143.3% of Control | 159.8% of Control | 97.4% of Control | 115.7% of Control
O=S(=O)(F)CCNc1ccc(F)cc1 [Example 20, Monohydrochloride] | – | – | – | 133.4% of Control | 111.8% of Control | 110.2% of Control | 116.9% of Control | 112.3% of Control
Cc1ccc(NCCS(=O)(=O)F)cc1 [Example 21] | – | – | – | 131.5% of Control | 132.0% of Control | 126.6% of Control | 119.9% of Control | 111.8% of Control
COc1ccc(NCCS(=O)(=O)F)cc1OC [Example 22, Monohydrochloride] | – | – | – | 143.6% of Control | 133.6% of Control | 116.4% of Control | 113.5% of Control | 106.7% of Control
O=S(=O)(F)CCNc1ccc(C(F)(F)F)cc1 [Example 23] | – | – | – | 108.1% of Control | 97.9% of Control | 107.3% of Control | 120.8% of Control | 111.7% of Control
COc1ccc(CCN(C)CCS(=O)(=O)F)cc1OC [Example 24, N-[2-(Fluorosulfonyl)ethyl]-3,4-dimethoxy-N-methylphenethylamine] | – | – | – | 150.4% of Control | 143.9% of Control | 153.5% of Control | 123.3% of Control | 106.7% of Control
CCc1ccc(NCCS(=O)(=O)F)cc1 [Example 25, Monohydrochloride] | – | – | – | 139.4% of Control | 123.3% of Control | 100.9% of Control | 110.6% of Control | 90.0% of Control
CC(C)(C)c1ccc(NCCS(=O)(=O)F)cc1 [Example 26, Hydrate] | – | – | – | 152.8% of Control | 165.7% of Control | 89.9% of Control | 102.7% of Control | 93.2% of Control
CC(C)c1ccc(NCCS(=O)(=O)F)cc1 [Example 27, Hydrate] | – | – | – | 137.2% of Control | 130.0% of Control | 106.9% of Control | 110.8% of Control | 97.7% of Control
